Where a name gives a salt, the structure may show the parent alone.
Target: T1, muscarinic receptor (Cavia porcellus, UniProt H0W1Z3)
T1 construct: Smooth muscle strips of the urinary bladder were dissected in a Krebs-Henseleit solution; from tissue; host or cells: guinea pig urinary bladder smooth muscle strips
Assay: Functional in vitro studies: antagonism of carbachol-induced contraction of urinary bladder smooth muscle strips
Format: cell-based, guinea pig
Conditions: not given

T1 sequence (H0W1Z3 1-590): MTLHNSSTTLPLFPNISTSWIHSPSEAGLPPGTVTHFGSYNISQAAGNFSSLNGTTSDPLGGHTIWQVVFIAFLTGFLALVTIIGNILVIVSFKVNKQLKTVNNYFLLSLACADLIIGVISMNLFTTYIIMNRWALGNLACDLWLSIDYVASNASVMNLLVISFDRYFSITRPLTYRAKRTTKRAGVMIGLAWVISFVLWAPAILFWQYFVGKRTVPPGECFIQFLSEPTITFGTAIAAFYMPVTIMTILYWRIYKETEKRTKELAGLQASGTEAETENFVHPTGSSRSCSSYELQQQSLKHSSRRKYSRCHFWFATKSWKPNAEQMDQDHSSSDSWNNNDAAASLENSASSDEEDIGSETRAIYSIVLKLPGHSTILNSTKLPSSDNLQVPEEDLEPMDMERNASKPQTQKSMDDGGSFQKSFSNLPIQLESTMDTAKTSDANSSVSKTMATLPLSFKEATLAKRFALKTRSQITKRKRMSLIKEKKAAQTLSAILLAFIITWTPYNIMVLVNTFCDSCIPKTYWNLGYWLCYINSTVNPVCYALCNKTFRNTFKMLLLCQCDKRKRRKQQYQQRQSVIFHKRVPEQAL

Compound	Kb
CC(C)N(CCC(c1ccccc1)c1cnc[nH]1)C(C)C (stereo not drawn) [Example 36, N,N-Diisopropyl-3-(imidazol-4(5)-yl)-3-phenylpropanamine dihydrochloride]	2640 nM

Same assay, conditions: male guinea pig urinary bladder strips; carbachol agonist; 60 min incubation with antagonist; Krebs-Henseleit pH 7.4, 37° C.; KB from dose ratios (Schild); 60 min; read-out: KB-value

Compound	Kb
CC(C)N(CC[C@H](c1ccccc1)c1cc(C(O)CO)ccc1O)C(C)C (single isomer, unassigned; (-)) [Example 16, (-)-N,N-Diisopropyl-3(R)-[5-(1(S*),2-dihydroxyethyl) 2-hydroxyphenyl]-3-phenylpropanamine fumarate]	32 nM

Same assay, conditions: male guinea pig urinary bladder strips; carbachol agonist; 60 min incubation with antagonist; Krebs-Henseleit pH 7.4, 37° C.; KB from dose ratios (Schild); read-out: KB-value

Compound	Kb
CC(C)N(CC[C@H](c1ccccc1)c1cc(CCO)ccc1O)C(C)C [Example 12, (R)-N,N-Diisopropyl-3-[2-hydroxy-5-(2-hydroxyethyl)phenyl]-3-phenylpropanamine hydrochloride]	1.18 nM
Cc1csc(C(CCN(C(C)C)C(C)C)c2ccccc2)n1 (stereo not drawn) [Example 39, N,N-Diisopropyl-3-(4-methylthiazol-2-yl)-3-phenyl-propanamine hydrochloride]	235 nM
CC(C)N(CCC(c1ccccc1)c1nccs1)C(C)C (stereo not drawn) [Example 38, N,N-Diisopropyl-3-phenyl-3-(thiazol-2-yl)propanamine hydrochloride]	207 nM
CN(CCC(c1ccccc1)c1cccs1)C1CCCCC1 (stereo not drawn) [Example 49, N-Cyclohexyl-N-methyl-3-phenyl-3-(2-thienyl)propanamine hydrochloride]	590 nM
CC(C)N(CCC(c1ccccc1)c1nc2ccccc2o1)C(C)C (stereo not drawn) [Example 34, N,N-Diisopropyl-3-(benzoxazol-2-yl)-3-phenylpropanamine, hydrochloride]	803 nM
CC(C)N(CCC(c1cccs1)c1ccccc1O)C(C)C (stereo not drawn) [Example 41, N,N-Diisopropyl-3-(2-hydroxyphenyl)-3-(2-thienyl)-propanamine fumarate]	7.6 nM
COc1ccccc1C(CCN(C(C)C)C(C)C)c1cccs1 (stereo not drawn) [Example 43, N,N-Diisopropylamine-3-(2-methoxyphenyl)-3-(2-thienyl)propanamine, fumarate]	29 nM
CC(C)NCCC(c1ccccc1)c1cc(C(=O)O)ccc1O (stereo not drawn) [Example 20, N-Isopropyl-3-(5-carboxy-2-hydroxyphenyl)-3-phenylpropanamine hydrochloride]	3320 nM
CC(C)N(CC[C@H](c1ccccc1)c1cc(N)ccc1O)C(C)C [Example 27, (R)-(N,N-Diisopropyl-3-(5-amino-2-hydroxyphenyl)-3-phenylpropanaminedihydrochloride]	7.1 nM
Cc1ccc(O)c(C(CCN(C(C)C)C(C)C)c2cccs2)c1 (single isomer, unassigned) [Example 55, (R*) N,N-Diisopropyl-3-(2-hydroxy-5-methylphenyl)-3-(2-thienyl)propanamine]	2 nM
CC(C)N(CCC(c1ccccc1)c1ccccc1F)C(C)C (stereo not drawn) [Example 6, N,N-Diisopropyl-3-(2-fluorophenyl)-3-phenylpropanamine hydrochloride]	10 nM
COc1cccc(C(CCN(C(C)C)C(C)C)c2cccs2)c1 (stereo not drawn) [Example 45, N,N-Diisopropyl-3-(3-methoxyphenyl)-3-(2-thienyl)propanamine hydrochloride]	51 nM
CC(C)N(C)CCC(c1ccccc1)c1cccs1 (stereo not drawn) [Example 51, N-Isopropyl-N-methyl-3-phenyl-3-(2-thienyl)propanamine hydrochloride]	118 nM
COc1ccc(C(CCN(C(C)C)C(C)C)c2cccs2)cc1 (stereo not drawn) [Example 46, N,N-Diisopropyl-3-(4-methoxyphenyl)-3-(2-thienyl)propanamine hydrochloride]	286 nM
CN(CCC(c1ccccc1)c1ccccc1O)C1CCCC1 (stereo not drawn) [Example 32, N-Cyclopentyl-N-methyl-3-(2-hydroxyphenyl)-3-phenylpropanamine hydrochloride]	36 nM
CC(C)N(CC[C@H](c1ccccc1)c1cc(CCCCCCO)ccc1O)C(C)C [Example 17, (R)-[N,N-Diisopropyl-3-[2-hydroxy-5-(6-hydroxyhexyl)phenyl]-3-phenylpropanamine hydrochloride]	3.5 nM
CC(O)c1ccc(O)c([C@H](CCN(C(C)C)C(C)C)c2ccccc2)c1 (stereo partly drawn) [Example 14, N,N-Diisopropyl-3(R)-[2-hydroxy-5-(1-hydroxyethyl)phenyl]-3-phenylpropanamine fumarate]	4.5 nM
CC(C)N(CC[C@H](c1ccccc1)c1cc(C=O)ccc1O)C(C)C [Example 7, (R)-N,N-Diisopropyl-3-(5-formyl-2-hydroxyphenyl)-3-phenylpropanamine hydrochloride]	13 nM
CN(CCC(c1ccccc1)c1ccccc1O)C1CCC1 (stereo not drawn) [Example 31, N-Cyclobutyl-N-methyl-3-(2-hydroxyphenyl)-3-phenylpropanamine hydrochloride]	14 nM
CC(C)N(CC[C@H](c1ccccc1)c1cc(N=[N+]=[N-])ccc1O)C(C)C [Example 28, (R)-N,N-Diisopropyl-3-(5-azido-2-hydroxyphenyl)-3-phenylpropanamine hydrochloride]	8.55 nM
CC(C)N(CCC(c1ccccc1)c1cccn1C)C(C)C (stereo not drawn) [Example 59, N,N-Diisopropyl-3-(N-methylpyrrol-2-yl)-3-phenylpropanamine fumarate]	690 nM
CC(C)N(CCC(c1ccccc1)c1ccccc1C(F)(F)F)C(C)C (stereo not drawn) [Example 4, N,N-Diisopropyl-3-(2-trifluoromethylphenyl)-3-phenylpropanamine hydrochloride]	132 nM

Compound	Kb
COC(=O)c1ccc(O)c([C@H](CCN(C(C)C)C(C)C)c2ccccc2)c1 [Example 9, (R)-N,N-Diisopropyl-3-(2-hydroxy-5-methyloxycarbonyl-phenyl)-3-phenylpropanamine hydrochloride]	3.8 nM
CC(C)N(CCC(c1ccccc1)c1ccccc1N)C(C)C (stereo not drawn) [Example 33, N,N-Diisopropyl-3-(2-aminophenyl)-3-phenylpropanamine hydrochloride]	56 nM
CC(C)N(CCC(c1ccccc1)c1ccccc1CO)C(C)C (stereo not drawn) [Example 10, N,N-Diisopropyl-3-(2-hydroxymethyl)phenyl-3-phenylpropanamine hydrochloride]	171 nM
CC(=O)NCCCc1ccc(O)c([C@H](CCN(C(C)C)C(C)C)c2ccccc2)c1 [Example 23, (R)-N,N-Diisopropyl-3-[5-3-(acetamidopropyl)-2-hydroxyphenyl]-3-phenylpropanamine hydrochloride]	1.05 nM
CC(C)N(CC[C@H](c1ccccc1)c1cc(CNCCOCCO)ccc1O)C(C)C [Example 8, (R)-N,N-Diisopropyl-3-[5-(7-hydroxy-2-aza-5-oxaheptyl)-2-hydroxyphenyl]-3-phenylpropanazine di-(S)-mandelate]	26 nM
COc1ccc(C(CCN(C(C)C)C(C)C)c2cccs2)c(OC)c1 (stereo not drawn) [Example 44, N,N-Diisopropyl-3-(2,4-dimethoxyphenyl)-3-(2-thienyl)propanamine fumarate]	2290 nM
c1ccc(C(CCN2CCCCC2)c2cccs2)cc1 (stereo not drawn) [Example 53, N-[3-Phenyl-3-(2-thienyl)propyl]piperidine hydrochloride]	154 nM
CC(C)N(CC[C@@H](c1ccccc1)c1cc(CCO)ccc1O)C(C)C [Example 11, (S)-N,N-Diisopropyl-3-[2-hydroxy-5-(2-hydroxyethyl)phenyl]-3-phenylpropanamine hydrochloride]	431 nM
Cn1cccc1C(CCN1CCCC1)c1ccccc1 (stereo not drawn) [Example 60, 3-(N-Methylpyrrol-2-yl)-3-phenyl-1-pyrrolidinopropane fumarate]	707 nM
CC(C)N(CCC(c1cccnc1)c1ccccc1O)C(C)C (stereo not drawn) [Example 5, N,N-Diisopropyl-3-(2-hydroxyphenyl)-3-(3-pyridyl)-propanamine dihydrochloride]	336 nM
COc1ccccc1C(CCN(C)C(C)C)c1cccs1 (stereo not drawn) [Example 47, N-Isopropyl-N-methyl-3-(2-methoxyphenyl)-3-(2-thienyl)propanamine fumarate]	91 nM
CC(=O)c1ccc(O)c([C@H](CCN(C(C)C)C(C)C)c2ccccc2)c1 [Example 13, (R)-N,N-Diisopropyl-3-(5-acetyl-2-hydroxyphenyl)-3-phenylpropanamine hydrochloride]	15 nM
CCN(CC)CCC(c1ccccc1)c1cccs1 (stereo not drawn) [Example 50, fumarate]	154 nM
CCOCc1ccc(O)c([C@H](CCN(C(C)C)C(C)C)c2ccccc2)c1 [Example 19, (R)-N,N-Diisopropyl-3-(5-ethoxymethyl-2-hydroxyphenyl)-3-phenylpropanamine]	2.9 nM
CC(C)N(CCc1ccc(O)c([C@H](CCN(C(C)C)C(C)C)c2ccccc2)c1)C(C)C [Example 18, (R)-N,N-Diisopropyl-3-[5-(2-diisopropylaminoethyl)-2-hydroxyphenyl]-3-phenylpropanamine hydrochloride]	172 nM
CC(C)N(CCC(c1ccccc1)c1cncs1)C(C)C (stereo not drawn) [Example 40, N,N-Diisopropyl-3-(thiazol-5-yl)-3-phenylpropanamine hydrochloride]	814 nM
CC(C)N(CCC(c1ccccc1)c1ncco1)C(C)C (stereo not drawn) [Example 37, N,N-Diisopropyl-3-(oxazol-2-yl)-3-phenylpropanamine hydrochloride]	520 nM
CC(C)N(CC[C@H](c1ccccc1)c1cc(CCCO)ccc1O)C(C)C [Example 29, (R) -N,N-Diisopropyl-3-[2-hydroxy-5-(3-hydroxypropyl)phenyl]-3-phenylpropanamine hydrochloride]	1.5 nM
c1ccc(C(CCN2CCCC2)c2cccs2)cc1 (stereo not drawn) [Example 52, N-[3-Phenyl-3-(2-thienyl)propyl]pyrrolidine fumarate]	350 nM
CC(C)N(CC[C@H](c1ccccc1)c1cc(CCC#N)ccc1O)C(C)C [Example 24, (R)-N,N-Diisopropyl-3-[5-(2-cyanoethyl)-2-hydroxyphenyl]-3-phenylpropanamine hydrochloride]	1.91 nM
Cc1ccc(O)c(C(CCN(CCOCCO)C(C)C)c2ccccc2)c1 (stereo not drawn) [Example 1, N-(5-Hydroxy-3-oxapentyl)-N-isopropyl-3-(2-hydroxy-5-methylphenyl)-3-phenylpropanamine hydrochloride]	499 nM

Reference: patent US6313132A, “Therapeutically active diarylpropylamines; their pharmaceutically acceptable salts; a method for their preparation and method for their use” (Pharmacia AB, priority 1999, dated 2001)
